{"source": "DBAASP", "assay_in_all_cases": "≥ marks a high value that may be exact or a test limit, other limits are often not marked, values filed in µg/mL are converted to µM", "key": {"Escherichia coli BW25113": {"test_system": "Escherichia coli BW25113"}, "[1]": {"test_system": "Pectobacterium carotovorum subsp. carotovorum DSM 30168"}, "[2]": {"test_system": "Pseudomonas syringae pv. syringae DSM 10604"}, "[3]": {"test_system": "Pseudomonas corrugata DSM 7228"}, "[4]": {"test_system": "Clavibacter michiganensis subsp. michiganensis DSM 46294"}, "[5]": {"test_system": "Pseudomonas syringae pv. tomato DC3000"}, "[6]": {"test_system": "Xanthomonas vesicatoria DSM 50861"}, "[7]": {"test_system": "Salmonella typhimurium KCTC 1926"}, "[8]": {"test_system": "Pseudomonas aeruginosa ATCC 15692"}, "[9]": {"test_system": "Pseudomonas aeruginosa KCTC 1637"}, "[10]": {"test_system": "Bacillus subtilis KCTC 1918"}, "[11]": {"test_system": "Proteus vulgaris KCTC 2433"}, "[12]": {"test_system": "Saccharomyces cerevisiae KCTC 7296"}, "[13]": {"test_system": "Candida albicans KCTC 7270"}, "[14]": {"test_system": "Escherichia coli KCTC 1682"}, "[15]": {"test_system": "Escherichia coli ATCC 25922"}, "[16]": {"test_system": "Staphylococcus aureus KCTC 1621"}, "[17]": {"test_system": "Trichosporon beigelii KCTC 7707"}, "[18]": {"test_system": "Staphylococcus aureus ATCC 25923"}, "[19]": {"test_system": "Staphylococcus epidermidis KCTC 1917"}, "[20]": {"test_system": "Staphylococcus aureus ATCC 12600"}, "Botrytis cinerea": {"test_system": "Botrytis cinerea"}, "[21]": {"test_system": "Candida albicans ATCC 10231"}, "[22]": {"test_system": "Escherichia coli ATCC 11775"}, "[23]": {"test_system": "Micrococcus luteus ATCC 9341"}, "Bacillus cereus": {"test_system": "Bacillus cereus"}, "Streptococcus uberis": {"test_system": "Streptococcus uberis"}, "Leuconostoc lactis": {"test_system": "Leuconostoc lactis"}, "Micrococcus luteus": {"test_system": "Micrococcus luteus"}, "[24]": {"test_system": "Staphylococcus epidermidis"}, "Escherichia coli": {"test_system": "Escherichia coli"}, "Pseudomonas aeruginosa": {"test_system": "Pseudomonas aeruginosa"}, "Pasteurella multocida": {"test_system": "Pasteurella multocida"}, "Listeria innocua": {"test_system": "Listeria innocua"}, "[25]": {"test_system": "Staphylococcus aureus ATCC 29213"}, "Enterobacter cloacae": {"test_system": "Enterobacter cloacae"}, "Enterococcus faecalis": {"test_system": "Enterococcus faecalis"}}, "data": [{"smiles": "CC(C)C[C@H](NC(=O)[C@H](Cc1ccc(O)cc1)NC(=O)[C@@H]1CCCN1)C(=O)N1CCC[C@H]1C(=O)N[C@@H](CCCN=C(N)N)C(=O)N1CCC[C@H]1C(=O)NCC(=O)N[C@@H](CCCN=C(N)N)C(=O)N[C@@H](CCCN=C(N)N)C(=O)N1CCC[C@H]1C(=O)N[C@@H](CCCN=C(N)N)C(=O)N[C@@H](Cc1ccccc1)C(=O)N1CCC[C@H]1C(=O)N1CCC[C@H]1C(=O)N1CCC[C@H]1C(=O)N[C@@H](Cc1ccccc1)C(=O)N1CCC[C@H]1C(=O)O", "note": "[PYLPRPGRRPRFPPPFP]", "values": [{"measurement": "MIC", "setting": "Escherichia coli BW25113", "value": "≥ 64", "unit": "µM"}]}, {"smiles": "CC[C@H](C)[C@H](NC(=O)[C@H](C)NC(=O)[C@H](CCCCN)NC(=O)[C@H](CCCN=C(N)N)NC(=O)[C@H](CCCN=C(N)N)NC(=O)[C@@H](N)CCCCN)C(=O)N[C@@H](CCCCN)C(=O)N[C@H](C(=O)N[C@@H](CC(C)C)C(=O)N[C@@H](CCCCN)C(=O)N[C@@H](CC(C)C)C(=O)N[C@H](C(=O)N[C@@H](C)C(=O)N[C@@H](CCCCN)C(=O)N[C@@H](CC(C)C)C(=O)N[C@H](C(=O)N[C@@H](CCCN=C(N)N)C(=O)N[C@@H](CCCCN)C(=O)N[C@@H](CCCCN)C(=O)N[C@@H](CCCN=C(N)N)C(N)=O)[C@@H](C)CC)[C@@H](C)CC)[C@@H](C)CC", "note": "[KRRKAIKILKLIAKLIRKKR]", "values": [{"measurement": "MIC", "setting": "[1]", "value": 4.04, "unit": "µM"}, {"measurement": "MIC", "setting": "[2]", "value": 4.04, "unit": "µM"}, {"measurement": "MIC", "setting": "[3]", "value": 0.101, "unit": "µM"}, {"measurement": "MIC", "setting": "[4]", "value": 0.0404, "unit": "µM"}, {"measurement": "MIC", "setting": "[5]", "value": 4.04, "unit": "µM"}, {"measurement": "MIC", "setting": "[6]", "value": 0.0404, "unit": "µM"}]}, {"smiles": "CC[C@H](C)[C@H](NC(=O)[C@@H]1CCCN1C(=O)[C@@H]1CCCN1C(=O)[C@H](CCCN=C(N)N)NC(=O)[C@H](Cc1c[nH]c2ccccc12)NC(=O)[C@@H](N)CCCN=C(N)N)C(=O)N[C@@H](CCCN=C(N)N)C(=O)N[C@@H](CCCN=C(N)N)C(=O)N1CCC[C@H]1C(=O)N1CCC[C@H]1C(=O)N[C@H](C(=O)N[C@@H](CCCN=C(N)N)C(=O)N1CCC[C@H]1C(=O)N1CCC[C@H]1C(=O)N[C@@H](Cc1c[nH]c2ccccc12)C(=O)N[C@@H](Cc1ccc(O)cc1)C(=O)N1CCC[C@H]1C(=O)O)[C@@H](C)CC", "note": "[RWRPPIRRPPIRPPWYP]", "values": [{"measurement": "MIC", "setting": "Escherichia coli BW25113", "value": 16, "unit": "µM"}]}, {"smiles": "CC[C@H](C)[C@H](NC(=O)[C@H](CCCCN)NC(=O)[C@H](CO)NC(=O)[C@H](Cc1ccccc1)NC(=O)[C@H](CC(C)C)NC(=O)[C@H](CCCCN)NC(=O)[C@@H]1CCCN1C(=O)[C@H](CC(C)C)NC(=O)[C@H](CCCN=C(N)N)NC(=O)[C@H](CCCCN)NC(=O)[C@H](Cc1ccccc1)NC(=O)[C@@H](NC(=O)[C@H](CCCCN)NC(=O)[C@H](CCCCN)NC(=O)[C@H](C)N)C(C)C)C(=O)N[C@@H](Cc1c[nH]c2ccccc12)C(=O)N[C@@H](CC(N)=O)C(=O)N[C@@H](Cc1c[nH]c2ccccc12)C(=O)N[C@@H](CCCCN)C(N)=O", "note": "[AKKVFKRLPKLFSKIWNWK]", "values": [{"measurement": "MIC", "setting": "[7]", "value": 0.09, "unit": "µM"}, {"measurement": "MIC", "setting": "[8]", "value": 2, "unit": "µM"}, {"measurement": "MIC", "setting": "[9]", "value": 1.56, "unit": "µM"}, {"measurement": "MIC", "setting": "[10]", "value": 0.39, "unit": "µM"}, {"measurement": "MIC", "setting": "[11]", "value": 0.09, "unit": "µM"}, {"measurement": "MIC", "setting": "[12]", "value": 1.56, "unit": "µM"}, {"measurement": "MIC", "setting": "[13]", "value": 3.13, "unit": "µM"}, {"measurement": "MIC", "setting": "[14]", "value": 0.19, "unit": "µM"}, {"measurement": "MIC", "setting": "[15]", "value": 2, "unit": "µM"}, {"measurement": "MIC", "setting": "[16]", "value": 0.39, "unit": "µM"}, {"measurement": "MIC", "setting": "[17]", "value": 1.56, "unit": "µM"}, {"measurement": "MIC", "setting": "[18]", "value": 4, "unit": "µM"}, {"measurement": "MIC", "setting": "[19]", "value": 0.39, "unit": "µM"}]}, {"smiles": "CC(C)C[C@H](NC(=O)[C@H](C)NC(=O)[C@H](CO)NC(=O)[C@@H](NC(=O)[C@@H](NC(=O)[C@H](CO)NC(=O)[C@H](CCCCN)NC(=O)[C@@H](NC(=O)[C@H](CC(C)C)NC(=O)CNC(=O)[C@H](CC(C)C)NC(=O)[C@H](CC(C)C)NC(=O)[C@H](CC(=O)O)NC(=O)[C@@H](N)Cc1ccccc1)C(C)C)C(C)C)C(C)C)C(N)=O", "note": "[FDLLGLVKSVVSAL]", "values": [{"measurement": "MIC", "setting": "[20]", "value": 25, "unit": "µM"}, {"measurement": "MIC", "setting": "Botrytis cinerea", "value": 5, "unit": "µM"}, {"measurement": "MIC", "setting": "[21]", "value": 100, "unit": "µM"}, {"measurement": "MIC", "setting": "[22]", "value": "≥ 200", "unit": "µM"}]}, {"smiles": "CC[C@H](C)[C@H](N)C(=O)N[C@@H](C)C(=O)N1CCC[C@H]1C(=O)N[C@@H](Cc1c[nH]c2ccccc12)C(=O)N[C@@H](CCCCN)C(=O)N[C@@H](Cc1c[nH]c2ccccc12)C(=O)N1CCC[C@H]1C(=O)N[C@@H](Cc1c[nH]c2ccccc12)C(=O)N[C@@H](Cc1c[nH]c2ccccc12)C(=O)N1CCC[C@H]1C(=O)N[C@@H](Cc1c[nH]c2ccccc12)C(=O)N[C@@H](CCCN=C(N)N)C(=O)N[C@@H](CCCN=C(N)N)C(N)=O", "note": "[IAPWKWPWWPWRR]", "values": [{"measurement": "MIC", "setting": "[23]", "value": 0.4, "unit": "µM"}]}, {"smiles": "CC[C@H](C)[C@H](NC(=O)[C@@H](NC(=O)[C@@H]1CCCN1C(=O)[C@@H](NC(=O)[C@@H](NC(=O)[C@H](Cc1cnc[nH]1)NC(=O)[C@@H]1CCCN1C(=O)[C@H](CC(C)C)NC(=O)[C@H](CC(C)C)NC(=O)[C@H](Cc1cnc[nH]1)NC(=O)[C@H](CCCCN)NC(=O)[C@H](C)NC(=O)[C@@H](NC(=O)[C@H](CO)NC(=O)CNC(=O)[C@H](CC(C)C)NC(=O)[C@@H](NC(=O)[C@H](CO)NC(=O)[C@H](Cc1ccccc1)NC(=O)[C@H](CC(C)C)NC(=O)CN)C(C)C)C(C)C)C(C)C)C(C)C)C(C)C)C(=O)N[C@@H](C)C(=O)N[C@@H](CCC(=O)O)C(=O)N[C@@H](CCCCN)C(=O)N[C@@H](CC(C)C)C(N)=O", "note": "[GLFSVLGSVAKHLLPHVVPVIAEKL]", "values": [{"measurement": "MIC", "setting": "Bacillus cereus", "value": 19.1, "unit": "µM"}, {"measurement": "MIC", "setting": "Streptococcus uberis", "value": 9.53, "unit": "µM"}, {"measurement": "MIC", "setting": "Leuconostoc lactis", "value": 9.53, "unit": "µM"}, {"measurement": "MIC", "setting": "Micrococcus luteus", "value": 4.57, "unit": "µM"}, {"measurement": "MIC", "setting": "[24]", "value": 9.53, "unit": "µM"}, {"measurement": "MIC", "setting": "Escherichia coli", "value": "> 38.1", "unit": "µM"}, {"measurement": "MIC", "setting": "Pseudomonas aeruginosa", "value": "> 38.1", "unit": "µM"}, {"measurement": "MIC", "setting": "[18]", "value": 4.57, "unit": "µM"}, {"measurement": "MIC", "setting": "Pasteurella multocida", "value": 19.1, "unit": "µM"}, {"measurement": "MIC", "setting": "Listeria innocua", "value": 4.57, "unit": "µM"}, {"measurement": "MIC", "setting": "[25]", "value": 4.57, "unit": "µM"}, {"measurement": "MIC", "setting": "Enterobacter cloacae", "value": "≥ 38.1", "unit": "µM"}, {"measurement": "MIC", "setting": "Enterococcus faecalis", "value": "≥ 38.1", "unit": "µM"}]}, {"smiles": "CC[C@H](C)[C@H](NC(=O)[C@H](CCCCN)NC(=O)[C@H](Cc1ccccc1)NC(=O)[C@H](CCCCN)NC(=O)[C@H](CCCCN)NC(=O)[C@H](CCCCN)NC(=O)[C@@H](N)CCCN=C(N)N)C(=O)N[C@@H](Cc1ccccc1)C(=O)N[C@@H](CCCCN)C(=O)N[C@@H](CCCN=C(N)N)C(=O)N[C@@H](CC(C)C)C(=O)N[C@@H](Cc1ccccc1)C(N)=O", "note": "[RKKKFKIFKRLF]", "values": [{"measurement": "MIC", "setting": "[1]", "value": 6.1, "unit": "µM"}, {"measurement": "MIC", "setting": "[2]", "value": 0.061, "unit": "µM"}, {"measurement": "MIC", "setting": "[3]", "value": 0.305, "unit": "µM"}, {"measurement": "MIC", "setting": "[4]", "value": 0.61, "unit": "µM"}, {"measurement": "MIC", "setting": "[5]", "value": 0.61, "unit": "µM"}, {"measurement": "MIC", "setting": "[6]", "value": 0.61, "unit": "µM"}]}, {"smiles": "CC[C@H](C)[C@H](NC(=O)[C@@H]1CCCN1C(=O)[C@@H]1CCCN1C(=O)[C@H](CCCN=C(N)N)NC(=O)[C@H](Cc1ccccc1)NC(=O)[C@@H](N)CCCN=C(N)N)C(=O)N[C@@H](CCCN=C(N)N)C(=O)N[C@@H](CCCN=C(N)N)C(=O)N1CCC[C@H]1C(=O)N1CCC[C@H]1C(=O)N[C@H](C(=O)N[C@@H](CCCN=C(N)N)C(=O)N1CCC[C@H]1C(=O)N1CCC[C@H]1C(=O)N[C@@H](Cc1ccccc1)C(=O)N[C@@H](Cc1c[nH]c2ccccc12)C(=O)N1CCC[C@H]1C(=O)O)[C@@H](C)CC", "note": "[RFRPPIRRPPIRPPFWP]", "values": [{"measurement": "MIC", "setting": "Escherichia coli BW25113", "value": 16, "unit": "µM"}]}]}
